Experimental data as given in patent US9808469B2, “Antitumor activity of multi-kinase inhibitors in triple negative breast cancer” (ENTRECHEM, S.L, priority 2014, dated 2017).

Key:
Assay type in all cases: cell-based
MDA-MB-231 cells = assay: MTT metabolization, inhibition of MDA-MB-231 cell proliferation
Experimental: (§1) These triple negative breast cancer cell lines were obtained from the American Type Culture Collection Cell Biology Collection (ATCC) (Manassas, Va.). The medium was changed every 2 days.
(§2) Cell proliferation and growth experiments were carried out using 3-(4,5-dimethylthiazol-2-yl)-2,5-diphenyltetrazolium bromide (MTT) uptake assays, where MTT is reduced to purple formazan by the mitochondria of living cells. Increase in cell number is detected by augmented MTT metabolization, and decrease in cell number is reflected by a decrease. […] The cells were treated with the drug at different concentrations to plot the dose-response curves in all cancer cell lines using in the study. […] After treatment, each well was replaced with 250 μL of fresh medium containing MTT ([…]) and incubated for 1 hour. The medium was then removed and 500 μL of dimethyl sulfoxide was added to each well. The plate was agitated in the dark for 5 minutes to dissolve the MTT-formazan crystals. The absorbance of the samples was recorded at 562 nm in a multi-well plate reader (BMG labtech). Results were plotted as the mean values of quadruplicates from a representative experiment that was repeated at least two independent times.
(§3) Combination index values less than 1 indicate synergism, values equal to 1 indicate an additive effect, whereas values greater than 1 indicate antagonism. Combination index values from three independent experiments were generated.

BT-549 cells = assay: MTT metabolization, inhibition of BT-549 cell proliferation
Experimental: as §1, §2, §3

HS578T cells = assay: MTT metabolization, inhibition of HS578T cell proliferation
Experimental: as §1, §2, §3

Q: How did the viability at 0.0004 µM (MDA-MB-231 cells; Homo sapiens, MDA-MB-231, Docetaxel 0.4 nM alone, read-out: Percentage inhibition Docetaxel mean) turn out when `CC(=O)O[C@@]12CO[C@@H]1C[C@H](O)[C@@]1(C)C(=O)[C@H](O)C3=C(C)[C@@H](OC(=O)[C@H](O)[C@@H](NC(=O)OC(C)(C)C)c4ccccc4)C[C@@](O)([C@@H](OC(=O)c4ccccc4)[C@H]21)C3(C)C` [Docetaxel, docetaxel, reference compound] was run?
A: 59.3%

Q: And the viability at 0.0008 µM (MDA-MB-231 cells; Homo sapiens, MDA-MB-231, Docetaxel 0.8 nM alone, read-out: Percentage inhibition Docetaxel mean)?
A: 33.8%

Q: And the viability at 0.0012 µM (MDA-MB-231 cells; Homo sapiens, MDA-MB-231, Docetaxel 1.2 nM alone, read-out: Percentage inhibition Docetaxel mean)?
A: 25.3%

Q: And the viability at 0.0016 µM (MDA-MB-231 cells; Homo sapiens, MDA-MB-231, Docetaxel 1.6 nM alone, read-out: Percentage inhibition Docetaxel mean)?
A: 25.3%

Q: And the inhibition at 0.0004 µM (BT-549 cells; Homo sapiens, BT-549, Docetaxel 0.4 nM alone, read-out: Percentage inhibition Docetaxel mean)?
A: 82%

Q: What about the inhibition at 0.0008 µM (BT-549 cells; Homo sapiens, BT-549, Docetaxel 0.8 nM alone, read-out: Percentage inhibition Docetaxel mean) of the same compound?
A: 36.1%

Q: What about the inhibition at 0.0012 µM (BT-549 cells; Homo sapiens, BT-549, Docetaxel 1.2 nM alone, read-out: Percentage inhibition Docetaxel mean) of the same compound?
A: 36.5%

Q: What about the inhibition at 0.0016 µM (BT-549 cells; Homo sapiens, BT-549, Docetaxel 1.6 nM alone, read-out: Percentage inhibition Docetaxel mean) of the same compound?
A: 36.1%

Q: And the percent inhibition of cell proliferation at 0.0004 µM (HS578T cells; Homo sapiens, Hs-578T, Docetaxel 0.4 nM alone, read-out: Percentage inhibition Docetaxel mean)?
A: 73%

Q: And the percent inhibition of cell proliferation at 0.0008 µM (HS578T cells; Homo sapiens, Hs-578T, Docetaxel 0.8 nM alone, read-out: Percentage inhibition Docetaxel mean)?
A: 49.6%

Q: And the percent inhibition of cell proliferation at 0.0012 µM (HS578T cells; Homo sapiens, Hs-578T, Docetaxel 1.2 nM alone, read-out: Percentage inhibition Docetaxel mean)?
A: 45.8%

Q: And the percent inhibition of cell proliferation at 0.0016 µM (HS578T cells; Homo sapiens, Hs-578T, Docetaxel 1.6 nM alone, read-out: Percentage inhibition Docetaxel mean)?
A: 47.9%

Q: Which “Percentage inhibition Carboplatin mean” value (MDA-MB-231 cells; Carboplatin 80 nM alone) does the source give for `N.N.O=C([O-])C1(C(=O)[O-])CCC1.[Pt+2]` [Carboplatin, carboplatin, reference compound] here?
A: 74.70%

Q: And the “Percentage inhibition Carboplatin mean” value (MDA-MB-231 cells; Carboplatin 120 nM alone)?
A: 62.30%

Q: And the “Percentage inhibition Carboplatin mean” value (MDA-MB-231 cells; Carboplatin 160 nM alone)?
A: 61.11%

Q: And the “Percentage inhibition Carboplatin mean” value (MDA-MB-231 cells; Carboplatin 200 nM alone)?
A: 58.21%

Q: What about the “Percentage inhibition Carboplatin mean” value (BT-549 cells; Carboplatin 80 nM alone) of the same compound?
A: 37.09%

Q: What about the “Percentage inhibition Carboplatin mean” value (BT-549 cells; Carboplatin 120 nM alone) of the same compound?
A: 21.43%

Q: And the “Percentage inhibition Carboplatin mean” value (BT-549 cells; Carboplatin 160 nM alone)?
A: 19.39%

Q: What about the “Percentage inhibition Carboplatin mean” value (BT-549 cells; Carboplatin 200 nM alone) of the same compound?
A: 15.69%

Q: And the “Percentage inhibition Carboplatin mean” value (HS578T cells; Carboplatin 80 nM alone)?
A: 70.90%

Q: And the “Percentage inhibition Carboplatin mean” value (HS578T cells; Carboplatin 120 nM alone)?
A: 60.26%

Q: What about the “Percentage inhibition Carboplatin mean” value (HS578T cells; Carboplatin 160 nM alone) of the same compound?
A: 50.49%

Q: And the “Percentage inhibition Carboplatin mean” value (HS578T cells; Carboplatin 200 nM alone)?
A: 24.33%
